In ChEMBL document CHEMBL5241122, “A concise review on marine bromopyrrole alkaloids as anticancer agents” (Bioorg Med Chem Lett, 2023) one finds IC50, GI50 and EC50 data, which are given here for 20 compounds.

Assay [1] deals with MCF7. In words: Cytotoxicity against human MCF7 cells by MTT assay. Type of assay: functional, cell-based.
For assay [2], the system named is WRL68. In words: Cytotoxicity against human WRL68 cells by MTT assay. Type of assay: functional, cell-based.
Assay [3] concerns Caco-2. As to the kind of experiment: Cytotoxicity against human Caco-2 cells by MTT assay. Type of assay: functional, cell-based.
In assay [4] the test system is SW-620. As to the kind of experiment: Cytotoxicity against human SW620 cells assessed as cell growth inhibition. The class given is functional, cell-based.
For assay [5], the system named is KB 3-1. In words: Cytotoxicity against human KB-3-1 cells assessed as cell growth inhibition. Type of assay: functional, cell-based.
For assay [6], the target named is Cyclin-dependent kinase 5/CDK5 activator 1 (Homo sapiens, UniProt Q00535). As to the kind of experiment: Inhibition of CDK5/p25 (unknown origin). The class given is protein-complex assay.
The nature of assay [7]: Inhibition of CK1gamma (unknown origin). On the set-up: species or system Homo sapiens.
Assay [8] relates to KB. As to the kind of experiment: Cytotoxicity against human KB cells. The class given is functional, cell-based.
The test system of assay [9] is K562. In words: Cytotoxicity against human K562 cells. Type of assay: functional, cell-based.
The test system of assay [10] is L1210. In words: Cytotoxicity against mouse L1210 cells. The class given is functional, cell-based.
Assay [11] deals with E3 ubiquitin-protein ligase CBL-B (Homo sapiens, UniProt Q13191). As to the kind of experiment: Inhibition of Cbl-b (unknown origin) assessed as inhibition of Cbl-b dependent ubiquitination in presence of ATP measured after 13 hrs by fluorescence microplate reader assay.
In assay [12] the test system is K562. As to the kind of experiment: Cytotoxicity against human K562 cells by MTT assay. Type of assay: functional, cell-based. (Tetrazolium assays rely on reduction of a dye to a coloured formazan, in cell work by metabolically active cells.)
Assay [13] has as its system L02. As to the kind of experiment: Cytotoxicity against human L02 cells by MTT assay. The class given is functional, cell-based.
Assay [14] deals with VIP peptides (Homo sapiens, UniProt P01282). In words: Displacement of [125I]-VIP from Vasoactive intestinal peptide (unknown origin) incubated for 120 mins by gamma scintillation counter analysis.
A short description of assay [15]: Displacement of [125I]-somatostatin from somatostatin (unknown origin) incubated for 60 mins by gamma scintillation counter analysis. On the set-up: species or system Homo sapiens.
In assay [16] the test system is MDA-MB-231. In words: Cytotoxicity against human MDA-MB-231 cells assessed as cell growth inhibition by cell based assay. Type of assay: functional.
Assay [17] relates to PSN1. In words: Cytotoxicity against human PSN1 cells assessed as cell growth inhibition by cell based assay. Type of assay: functional.
For assay [18], the system named is HT-29. As to the kind of experiment: Cytotoxicity against human HT-29 cells assessed as cell growth inhibition by cell based assay. Type of assay: functional.
The test system of assay [19] is A549. As to the kind of experiment: Cytotoxicity against human A549 cells assessed as cell growth inhibition by cell based assay. Type of assay: functional.
Assay [20] deals with Receptor tyrosine-protein kinase erbB-2 (Homo sapiens, UniProt P04626). As to the kind of experiment: Inhibition of c-ErbB-2 (unknown origin).
Assay [21] concerns the target Epidermal growth factor receptor (Homo sapiens, UniProt P00533). In words: Inhibition of EGFR (unknown origin).
For assay [22], the system named is P388. As to the kind of experiment: Cytotoxicity against mouse P388 cells. The class given is functional, cell-based. The following applies: read-out: ED50 (the source's name).
For assay [23], the system named is MONO-MAC-6. In words: Cytotoxicity against human MONO-MAC-6 cells incubated for 48 hrs by [3H]-thymidine incorporation based liquid scintillation counter analysis. The class given is functional, cell-based. (Uptake of a labelled nucleoside into DNA is a usual measure of proliferation.)
The subject of assay [24] is PC-9. In words: Cytotoxicity against human PC-9 cells incubated for 48 hrs by MTT assay. The class given is functional, cell-based. The following applies: PC-9, 48 h.
The subject of assay [25] is U-937. In words: Cytotoxicity against human U-937 cells incubated for 48 hrs by MTT assay. Type of assay: functional, cell-based. As to conditions: U-937, 48 h.
Assay [26] is described as follows: Inhibition of recombinant human MAPK expressed in Escherichia coli assessed as reduction in MEK-1 phosphorylation incubated for 60 mins by ELISA assay. A general note: In an ELISA, binding on a coated surface is turned into a signal by an enzyme label.
The test system of assay [27] is Jurkat. As to the kind of experiment: Antiinflammatory activity in PMA induced human Jurkat cells assessed as inhibition of IL-2 production by EIA assay. The class given is functional, cell-based.
In assay [28] the test system is LoVo. In words: Inhibition of cell growth in human LoVo cells by SRB assay. The class given is functional, cell-based.
The subject of assay [29] is THP-1. As to the kind of experiment: Antiinflammatory activity in LPS induced human THP-1 cells assessed as inhibition of TNF-alpha production by EIA assay. Type of assay: functional, cell-based.

SMILES strings stand for the structures. pEC50, pIC50: −log10 of the molar value. Where a SMILES comes first, the peptide text is derived from it. [ ]: non-standard residue; d: D form. The star is where a group is joined. X1 = Cn1c(Br)c(Br)c(Br)c1C(=O)*; NMeL = CN[C@@H](CC(C)C)C(=O)O

E3 ubiquitin-protein ligase CBL-B, sequence (Q13191 whole entry): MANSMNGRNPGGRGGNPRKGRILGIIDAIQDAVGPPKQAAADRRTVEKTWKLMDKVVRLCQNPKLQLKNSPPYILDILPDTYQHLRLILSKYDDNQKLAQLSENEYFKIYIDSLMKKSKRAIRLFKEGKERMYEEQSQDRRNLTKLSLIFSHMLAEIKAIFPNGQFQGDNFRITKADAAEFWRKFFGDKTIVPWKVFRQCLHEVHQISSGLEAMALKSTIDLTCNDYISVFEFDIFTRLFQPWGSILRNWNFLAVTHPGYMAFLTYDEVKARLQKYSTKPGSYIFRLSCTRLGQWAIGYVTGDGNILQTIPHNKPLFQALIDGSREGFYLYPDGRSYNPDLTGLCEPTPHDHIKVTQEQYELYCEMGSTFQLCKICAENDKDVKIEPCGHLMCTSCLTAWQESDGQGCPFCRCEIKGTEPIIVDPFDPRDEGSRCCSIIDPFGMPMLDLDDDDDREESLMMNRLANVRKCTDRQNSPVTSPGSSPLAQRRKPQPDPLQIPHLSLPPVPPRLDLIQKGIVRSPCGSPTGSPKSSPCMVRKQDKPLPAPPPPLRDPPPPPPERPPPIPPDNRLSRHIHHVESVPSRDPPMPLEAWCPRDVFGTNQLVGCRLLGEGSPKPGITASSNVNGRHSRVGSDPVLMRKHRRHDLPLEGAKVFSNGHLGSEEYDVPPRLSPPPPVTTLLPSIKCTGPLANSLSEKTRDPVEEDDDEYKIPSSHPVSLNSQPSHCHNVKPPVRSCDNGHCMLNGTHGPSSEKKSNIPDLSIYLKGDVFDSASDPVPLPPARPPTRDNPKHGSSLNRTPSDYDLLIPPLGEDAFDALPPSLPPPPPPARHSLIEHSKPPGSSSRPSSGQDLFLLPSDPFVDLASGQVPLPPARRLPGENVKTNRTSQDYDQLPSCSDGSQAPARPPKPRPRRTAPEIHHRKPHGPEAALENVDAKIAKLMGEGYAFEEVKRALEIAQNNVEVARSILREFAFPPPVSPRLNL
Receptor tyrosine-protein kinase erbB-2, sequence (P04626 whole entry): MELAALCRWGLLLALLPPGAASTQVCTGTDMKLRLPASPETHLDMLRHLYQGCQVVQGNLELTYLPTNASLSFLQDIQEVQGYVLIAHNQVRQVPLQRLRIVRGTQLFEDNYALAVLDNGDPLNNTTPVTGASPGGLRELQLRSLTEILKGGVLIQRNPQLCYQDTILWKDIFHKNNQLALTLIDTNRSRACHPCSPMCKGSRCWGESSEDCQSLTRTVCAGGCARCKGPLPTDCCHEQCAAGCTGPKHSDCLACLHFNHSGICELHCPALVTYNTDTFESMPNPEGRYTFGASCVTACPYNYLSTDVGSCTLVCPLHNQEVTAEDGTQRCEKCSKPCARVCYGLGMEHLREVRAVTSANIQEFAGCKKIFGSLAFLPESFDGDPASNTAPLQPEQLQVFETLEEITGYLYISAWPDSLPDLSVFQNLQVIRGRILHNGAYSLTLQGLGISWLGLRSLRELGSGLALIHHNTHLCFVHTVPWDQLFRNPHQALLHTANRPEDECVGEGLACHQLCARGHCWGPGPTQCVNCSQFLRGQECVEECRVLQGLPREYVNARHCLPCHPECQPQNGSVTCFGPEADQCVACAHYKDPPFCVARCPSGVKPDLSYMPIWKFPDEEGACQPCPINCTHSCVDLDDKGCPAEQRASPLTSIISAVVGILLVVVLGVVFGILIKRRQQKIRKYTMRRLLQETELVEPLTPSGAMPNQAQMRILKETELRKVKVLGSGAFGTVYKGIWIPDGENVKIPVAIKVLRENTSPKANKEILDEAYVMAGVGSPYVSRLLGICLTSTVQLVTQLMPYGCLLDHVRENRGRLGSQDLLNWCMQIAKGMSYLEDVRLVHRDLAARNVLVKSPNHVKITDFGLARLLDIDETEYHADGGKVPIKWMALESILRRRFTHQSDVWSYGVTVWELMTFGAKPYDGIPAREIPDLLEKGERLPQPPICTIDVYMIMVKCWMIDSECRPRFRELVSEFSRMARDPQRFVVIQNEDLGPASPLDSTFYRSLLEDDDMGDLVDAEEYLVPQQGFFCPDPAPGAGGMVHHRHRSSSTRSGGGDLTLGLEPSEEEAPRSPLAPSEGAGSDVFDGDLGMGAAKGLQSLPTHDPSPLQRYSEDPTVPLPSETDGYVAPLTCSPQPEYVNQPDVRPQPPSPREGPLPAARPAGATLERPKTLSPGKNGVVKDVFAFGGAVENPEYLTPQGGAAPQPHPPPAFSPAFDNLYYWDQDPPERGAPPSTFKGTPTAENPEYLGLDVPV
VIP peptides, sequence (P01282 125-152 limits assumed): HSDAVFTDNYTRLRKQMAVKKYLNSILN
Cyclin-dependent kinase 5/CDK5 activator 1, sequence (Q00535 whole entry): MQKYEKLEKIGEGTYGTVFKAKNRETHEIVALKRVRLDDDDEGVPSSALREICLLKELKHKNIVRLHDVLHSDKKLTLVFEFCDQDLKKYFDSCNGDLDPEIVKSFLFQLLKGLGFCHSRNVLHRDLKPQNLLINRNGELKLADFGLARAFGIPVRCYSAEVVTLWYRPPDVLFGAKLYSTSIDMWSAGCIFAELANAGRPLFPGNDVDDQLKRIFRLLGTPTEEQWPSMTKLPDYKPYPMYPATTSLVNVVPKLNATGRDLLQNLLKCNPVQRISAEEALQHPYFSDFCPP
Cyclin-dependent kinase 5/CDK5 activator 1, sequence (Q15078 whole entry, further chain): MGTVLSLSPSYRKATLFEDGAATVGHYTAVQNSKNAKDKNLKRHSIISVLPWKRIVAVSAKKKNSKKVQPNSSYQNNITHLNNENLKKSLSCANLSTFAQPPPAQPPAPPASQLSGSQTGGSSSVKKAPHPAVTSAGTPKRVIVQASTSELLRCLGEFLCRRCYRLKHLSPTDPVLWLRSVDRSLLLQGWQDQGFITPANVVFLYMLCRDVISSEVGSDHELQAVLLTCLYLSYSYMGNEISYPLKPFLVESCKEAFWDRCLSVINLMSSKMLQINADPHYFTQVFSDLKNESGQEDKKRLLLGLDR
Epidermal growth factor receptor, sequence (P00533 whole entry): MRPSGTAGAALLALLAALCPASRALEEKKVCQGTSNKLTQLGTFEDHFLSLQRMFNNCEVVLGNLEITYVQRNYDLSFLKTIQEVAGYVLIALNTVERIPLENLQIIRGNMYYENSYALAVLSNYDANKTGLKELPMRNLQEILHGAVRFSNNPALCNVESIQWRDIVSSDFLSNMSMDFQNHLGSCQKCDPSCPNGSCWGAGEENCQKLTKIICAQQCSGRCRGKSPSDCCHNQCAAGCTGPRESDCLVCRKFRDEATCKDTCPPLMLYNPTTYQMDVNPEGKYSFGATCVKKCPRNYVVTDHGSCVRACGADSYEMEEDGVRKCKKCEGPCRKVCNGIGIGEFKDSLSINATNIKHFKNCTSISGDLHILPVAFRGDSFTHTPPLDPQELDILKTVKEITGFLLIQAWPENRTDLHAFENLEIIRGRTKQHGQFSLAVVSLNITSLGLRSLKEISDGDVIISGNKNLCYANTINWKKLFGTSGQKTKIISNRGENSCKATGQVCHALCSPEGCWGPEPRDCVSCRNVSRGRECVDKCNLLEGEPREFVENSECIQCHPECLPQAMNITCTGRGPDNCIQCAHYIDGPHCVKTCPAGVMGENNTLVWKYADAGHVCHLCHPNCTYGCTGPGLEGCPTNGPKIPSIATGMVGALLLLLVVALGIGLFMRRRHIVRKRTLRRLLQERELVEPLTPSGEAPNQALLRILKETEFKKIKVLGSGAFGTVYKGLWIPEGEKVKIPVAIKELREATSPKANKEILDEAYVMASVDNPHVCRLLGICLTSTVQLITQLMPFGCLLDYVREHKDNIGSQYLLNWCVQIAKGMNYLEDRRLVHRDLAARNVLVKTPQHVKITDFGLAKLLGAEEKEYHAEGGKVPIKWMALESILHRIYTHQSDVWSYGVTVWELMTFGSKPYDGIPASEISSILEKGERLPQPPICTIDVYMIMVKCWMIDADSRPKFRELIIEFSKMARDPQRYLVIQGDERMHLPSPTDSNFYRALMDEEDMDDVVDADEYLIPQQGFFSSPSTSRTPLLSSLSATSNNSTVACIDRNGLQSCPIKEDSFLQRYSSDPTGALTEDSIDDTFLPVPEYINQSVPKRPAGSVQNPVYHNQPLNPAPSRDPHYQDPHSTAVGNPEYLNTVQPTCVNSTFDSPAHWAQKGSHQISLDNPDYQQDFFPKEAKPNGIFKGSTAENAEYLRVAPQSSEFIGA

On to `Cn1c(C(=O)NNC(=S)Nc2ccccc2F)cc(Br)c1Br`, for which the negative-log IC50 (pIC50) in assay [1], in [2] and in [3] was 8.00 throughout.

In the case of `N=C1NC(=O)C(=C2CCNC(=O)c3[nH]c(Br)cc32)N1`, the pIC50 in [4] is 5.51; in assay [5], 5.70; in [6], 6.80; in assay [7] it was 7.52.

Take `N=C1N=C(NCCS(=O)(=O)O)C(O)(/C=C/CNC(=O)c2cc(Br)c(Br)[nH]2)N1` (stereo not given): the pIC50 in [8] and in assay [9] was 4.68 in each case.

`NC1NC2c3c([nH]c(Br)c3Br)C(=O)N3C[C@H](Cl)[C@H](O)C23N1` (stereo not given in full) had a negative logarithm of the IC50 (pIC50) in [10] of 5.25.

With `Cn1cc(Br)cc1C(=O)NC[C@H]1CC2N=C(N)NC2[C@@H](c2c[nH]c(N)n2)[C@@H]1CNC(=O)c1cc(Br)c(Br)[nH]1` (stereo not given in full), the negative-log IC50 (pIC50) in assay [11] was 4.74.

On to `Cn1cccc1C(=O)NC[C@H]1CC2N=C(N)NC2[C@@H](c2c[nH]c(N)n2)[C@@H]1CNC(=O)c1cc(Br)c(Br)n1C` (stereo not given in full), for which the pIC50 in [11] is 4.74.

Turning to `O=C1NC(=O)/C(=C/CCNC(=O)c2[nH]cc(Br)c2Br)N1`, the pIC50 in assay [12] is 5.21; in assay [13], 4.91.

`NC1=NC2C[C@H](CNC(=O)c3cc(Br)c[nH]3)[C@@H](CNC(=O)c3cc(Br)c[nH]3)[C@H](c3nc(N)c[nH]3)C2N1` (stereo not given in full): the pIC50 in assay [14] is 4.72; in [15], 5.66.

On to `COc1cc(NC(=S)NNC(=O)c2cc(Br)c(Br)n2C)cc(OC)c1OC`, for which the pIC50 in assay [1], in assay [2] and in assay [3] was 7.52 in each case.

As to `Cn1c(C(=O)NC[C@H]2CC3N=C(N)NC3[C@@H](c3c[nH]c(N)n3)[C@@H]2CNC(=O)c2cc(Br)c[nH]2)cc(Br)c1Br` (stereo not given in full), the negative logarithm of the IC50 (pIC50) in [11] is 4.74.

Regarding `Cn1cc(Br)cc1C(=O)NC[C@@H]1[C@@H](CNC(=O)c2ccc(Br)[nH]2)CC2N=C(N)NC2[C@H]1c1c[nH]c(N)n1` (stereo not given in full), in assay [11], the pIC50 is 4.74.

`CC[C@H](C)[C@H](NC(=O)c1c(Br)c(Br)c(Br)n1C)C(=O)N(C)[C@@H](CC(C)C)C(=O)N1CCC[C@H]1C(=O)N[C@@H](CCC(N)=O)C(=O)O` (X1-I[NMeL]PQ-OH): the 50% growth inhibitory concentration (GI50) in assay [16], in [17], in assay [18] and in assay [19] was more than 12 µM throughout.

In assay [20], `N=C1N=C(NCCS(=O)(=O)O)/C(=C/C(O)CNC(=O)c2cc(Br)c[nH]2)N1` (mixture of isomers) showed a pIC50 of 4.42.

Consider `N=C1N=C(NCCS(=O)(=O)O)/C(=C/C(O)CNC(=O)c2cc(Br)c(Br)[nH]2)N1` (mixture of isomers) [TAUROACIDIN A], for which the results for the pIC50 in assay [20] and in assay [21] were 4.42 and 4.35, respectively.

As to `COC(=O)CC1CNC(=O)c2cc(Br)c(Br)n21` (racemic), the pEC50 in assay [22] is 4.09.

In [23], `NC1=N/C(=C2/CCNC(=O)c3[nH]ccc32)C(=O)N1` [DEBROMOHYMENIALDISINE] had a pIC50 of 5.01.

Regarding `COc1cccc2c1C(=O)c1c(O)c3c(c(O)c1C2=O)C[C@@](O)(C(=O)CO)C[C@@H]3O[C@H]1C[C@H](N)[C@H](O)[C@H](C)O1` [DOXORUBICIN], the negative-log IC50 (pIC50) was 6.66 in assay [24] and 7.30 in assay [25].

On to `NC1=NC(=O)/C(=C2\CCNC(=O)c3[nH]c(Br)cc32)N1` [HYMENIALDISINE], for which the pIC50 in assay [23] is 6.21; in assay [26] it was 8.22; in [27], 5.40; in assay [28], 8.22.

Turning to `S=C(S)N1CCCC1` [PYRROLIDINE DITHIOCARBAMATE], the negative-log IC50 (pIC50) is 5.21 in assay [29] and 5.29 in [27].

`Nc1nc([C@H]2[C@H](CNC(=O)c3cc(Br)c[nH]3)[C@@H](CNC(=O)c3cc(Br)c[nH]3)[C@@H]2c2c[nH]c(N)n2)c[nH]1` [SCEPTRIN]: the results for the pIC50 in assay [14] and in assay [15] were 4.70 and 6.57, respectively.

What is called pIC50 is the IC50 on a negative log10 scale, so that one unit is a factor of ten. As usually defined, the GI50 is the concentration giving 50% growth inhibition.
